Where “and” joins values, the source holds several entries; their conditions need not be identical. Identical values can stand only once.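 Growth conditions: 96-well plates. Treatment: test compound, 48 hours, 5 concentrations. Analysis: linear interpolation between bracketing concentrations; unreached endpoints set to highest concentration. GI50: concentration for 50% inhibition of growth. Definition used: TGI = concentration required for complete inhibition of growth.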
Experiments:
Experiment in all cases: NCI anticancer screen, dose series, 48 h
DU-145 prostate = test system: DU-145 prostate
EKVX NSCLC = test system: EKVX NSCLC
HCT-116 colon = test system: HCT-116 colon
KM12 colon = test system: KM12 colon
MDA-MB-231 breast = test system: MDA-MB-231 breast
NCI-H23 lung = test system: NCI-H23 lung
SK-MEL-2 melanoma = test system: SK-MEL-2 melanoma
SW-620 colon = test system: SW-620 colon
T-47D breast = test system: T-47D breast
UO-31 renal = test system: UO-31 renal

Row | SMILES | GI50 (DU-145 prostate) | TGI (DU-145 prostate) | GI50 (EKVX NSCLC) | TGI (EKVX NSCLC) | GI50 (HCT-116 colon) | GI50 (KM12 colon) | TGI (KM12 colon) | GI50 (MDA-MB-231 breast) | GI50 (NCI-H23 lung) | TGI (NCI-H23 lung) | GI50 (SK-MEL-2 melanoma) | TGI (SK-MEL-2 melanoma) | GI50 (SW-620 colon) | TGI (SW-620 colon) | GI50 (T-47D breast) | TGI (T-47D breast) | GI50 (UO-31 renal) | TGI (HCT-116 colon) | TGI (MDA-MB-231 breast) | TGI (UO-31 renal)
1 | CCCCCCCCCCCCCCCCOP(=O)([O-])OCC[N+](C)(C)C | 4.01 µM | 14.7 µM and 39.9 µM | 2.63 µM | 11.1 µM and 58.6 µM | 1.49 µM | 0.341 µM | 1.78 µM and 10.3 µM | 1.19 µM | 3.17 µM | 13.3 µM and 65.3 µM | 2.36 µM | 7.05 µM and 46.9 µM | 2.08 µM | 13.9 µM and 57 µM | 4.42 µM | 16.2 µM and 35.9 µM | 1.47 µM |  |  | 
2 | O=C(CI)Nc1ccc(O)c2ccccc12 | 1.88 µM | 3.87 µM | 2.52 µM | 8.59 µM | 0.481 µM | 1.9 µM | 3.69 µM | 2.59 µM | 1.67 µM | 3.69 µM | 2.93 µM | 9.22 µM | 0.282 µM | 0.886 µM | 1.7 µM | 4.27 µM | 0.647 µM | 1.16 µM | 6.69 µM | 2.01 µM
3 | O=CN1N=C(c2cccc(Nc3ccnc4cc(Cl)ccc34)c2)CC1c1ccccc1 (stereo not given) | 0.44 µM | 16.8 µM | 0.949 µM | > 100 µM | 0.364 µM | 0.315 µM | 12.7 µM | 0.858 µM | 0.551 µM | > 36.8 µM | 0.258 µM | 0.825 µM | 0.311 µM | 14.7 µM | 0.381 µM | 9.59 µM | 0.408 µM | 1.63 µM | > 21.3 µM | > 100 µM
4 | COc1cc(OC)c(OC)cc1/C=C/c1cnnc2ccccc12 |  | > 10 µM |  | > 10 µM |  |  | > 10 µM |  |  | > 10 µM |  | > 10 µM |  | > 10 µM |  | > 10 µM |  | > 10 µM | > 10 µM | > 10 µM
5 | O=C(c1ccccc1)c1c(C(F)(F)F)n([O-])c2cc(C(F)(F)F)ccc2[n+]1=O | 1.22 µM | 2.47 µM | 1.73 µM | 3.42 µM | 0.951 µM | 1.6 µM | 3.17 µM | 1.6 µM | 1.54 µM | 4.9 µM | 2.09 µM | 3.93 µM | 0.619 µM | 1.69 µM | 1.46 µM | 3.38 µM | 1.32 µM | 2.36 µM | 3.11 µM | 2.67 µM
6 | CC(C)c1cccc(O)c(=O)c1 | 2.1 µg/mL | 24.7 µg/mL | 1.45 µg/mL |  | 3.81 µg/mL | 2.41 µg/mL | > 75 µg/mL and > 100 µM | 6.73 µg/mL | 35 µg/mL | > 75 µg/mL and > 78.8 µM | 6.86 µg/mL | 32.4 µg/mL and 95.7 µM | 3.56 µg/mL | > 75 µg/mL and > 100 µM | 0.0075 µg/mL | 0.0075 µg/mL | 2.58 µg/mL | > 75 µg/mL and > 40.2 µM | > 75 µg/mL | 35.5 µg/mL and > 71.1 µM
7 | CO[C@H]1C[C@](C)(O)Cc2cc3c(c(O)c21)C(=O)c1c(O)cc2c(c1C3=O)O[C@@H]1O[C@@]2(C)[C@H](O)[C@@H](N(C)C)[C@@H]1O |  | 7.14 µM | 2.4 µM | 6.5 µM and 13 µM | 1.13 µM | 1.39 µM | 3.18 µM and 11.4 µM |  |  | 2.03 µM and 6.54 µM |  | 5.09 µM and 5.82 µM | 0.847 µM | 3.87 µM and 7.69 µM |  | 17.4 µM | 1.33 µM | 2.51 µM and 3.03 µM | 8 µM | 2.85 µM and 7.08 µM
8 | CCCCCCCC(=O)SCC/C=C/[C@@H]1CC(=O)NCc2nc(cs2)C2=N[C@@](C)(CS2)C(=O)N[C@@H](C(C)C)C(=O)N1 | < 0.01 µM | > 100 µM | 0.0662 µM | > 100 µM | < 0.01 µM | 0.0389 µM | > 100 µM | 0.0286 µM | 0.0399 µM | 20.8 µM | 0.0304 µM | 0.597 µM | 0.0645 µM | 5.57 µM | < 0.0124 µM | 0.0677 µM | 0.741 µM | 0.035 µM | 31.5 µM | 21.2 µM
9 | C[C@H]1CNC(=O)c2cnn3ccc(nc23)N[C@H](C)c2cc(F)ccc2O1 | 2.26 µM | 12.8 µM | 1.24 µM | > 75.4 µM | 0.559 µM |  | > 100 µM | 0.514 µM | 1.93 µM | 53.1 µM | 3.54 µM | 24 µM | 0.517 µM | > 55.1 µM | 1.6 µM | > 93.5 µM | 1.21 µM | 16.9 µM | 13 µM | 3.56 µM
10 | COC(=O)c1c2c(c(C)[n+]([O-])c1C)C(=O)C=C(NCc1cccc(Cl)c1)C2=O | 0.821 µM | 2.18 µM | 0.762 µM | 2.15 µM | 0.284 µM | 0.2 µM | 1.69 µM | 0.261 µM | 0.463 µM | 2.54 µM | 1.04 µM | 2.77 µM | 0.244 µM | 1.23 µM | 0.187 µM | 1.71 µM | 1.09 µM | 0.976 µM | 2.77 µM | 2.35 µM
11 | NC(=O)c1cccc(OCC(O)CO)c1 (stereo not given) |  | > 100 µM |  | > 100 µM |  |  | > 100 µM |  |  | > 100 µM |  | > 100 µM |  | > 100 µM |  | > 100 µM |  | > 100 µM | > 100 µM | > 100 µM
12 | ClCc1ccccc1Cn1cnc2c(Cl)ncnc21 | 5.65 µM | 34.4 µM | 3.11 µM | 11 µM | 1.91 µM | 16.6 µM | 33.2 µM | 3.04 µM | 2.02 µM | 4.34 µM | 2.76 µM | 18.1 µM | 1.78 µM | 5.04 µM | 17.9 µM | 62 µM | 2.65 µM | 3.69 µM | 7.41 µM | 10.4 µM
13 | O=C(C#Cc1ccccc1)C1=Cc2ccccc2OC1 |  | 20.7 µM |  | 6.12 µM |  |  | 9.67 µM |  |  | 5.47 µM |  | 11.7 µM |  | 9.84 µM |  | > 61.1 µM |  | 4.21 µM | 10.5 µM | 5.34 µM
14 | O=C(Nc1ccc(F)cc1)Nc1ccc(Br)c(C(F)(F)F)c1 | 3.27 µM | 13.4 µM | 2.4 µM | 10.6 µM | 1.72 µM | 1.96 µM | 7.92 µM | 2.18 µM | 2.04 µM | 9.5 µM | 2.38 µM | 6.19 µM | 3.22 µM | 12.7 µM | 1.62 µM | 7.4 µM | 2.35 µM | 9.33 µM | 5.33 µM | 10.6 µM
15 | Cc1ccc2c(c1)C(=O)c1c-2c(OCCCN(C)C)nc2ccccc12 | 2.81 µM | 13.9 µM | 2.42 µM | 13.5 µM | 0.718 µM | 1.22 µM | 2.72 µM | 1.64 µM | 1.66 µM | 4.48 µM | 11.7 µM | 27.4 µM | 0.587 µM | 2.02 µM | 7.95 µM | 26 µM | 1.13 µM | 2.12 µM | 5.45 µM | 8.26 µM
16 | CC(=O)NC(CSC1=C2NC(=O)\C=C/C=C/C=C\C(C)C(O)CC(=O)/C(C)=C\CC(O)/C=C/C(C)C(O)C(C)C=C(C)C(=O)c3c(O)c(C)cc(c3C1=O)C2=O)C(=O)O (stereo not given) |  | > 100 µM |  | > 100 µM |  |  | > 100 µM |  |  | > 100 µM |  | > 100 µM |  | > 100 µM |  | > 100 µM |  | > 100 µM | 82.7 µM | > 100 µM
17 | Nc1nc2cc(CC[C@H]3C[C@@H](n4ccc5c(N)ncnc54)[C@H](O)[C@@H]3O)ccc2cc1Br | 13.1 µM | 27 µM | 4.22 µM | 22 µM | 2.45 µM | 11 µM | 25.9 µM | 11.1 µM | 2.07 µM | 23.9 µM | 10.9 µM | 25.1 µM | 13.3 µM | 27.7 µM | 0.785 µM | 27.2 µM | 2.92 µM | 19.9 µM | 24.4 µM | 18 µM
18 | C=C1C(=O)O[C@H]2[C@H]1CC/C(COC(=O)OC/C1=C/CC[C@@]3(C)O[C@H]3[C@H]3OC(=O)[C@@H](CN(C)C)[C@@H]3CC1)=C\CC[C@@]1(C)O[C@@H]21 | 1.65 µM | 3.32 µM | 2.17 µM | 9.39 µM | 1.13 µM | 5.49 µM | 18.7 µM | 1.49 µM | 2.86 µM | 10.2 µM | 2.27 µM | 5.88 µM | 0.445 µM | 1.85 µM | 0.714 µM | 3.08 µM | 1.04 µM | 2.35 µM | 3.07 µM | 2.25 µM
19 | C=C1SC(=Nc2ccccc2Cl)N(C(=O)c2sc3ccccc3c2Cl)C12CCCCC2 | 6.2 µM | > 100 µM | 3.2 µM | > 100 µM | 7.61 µM | 4.73 µM | > 100 µM | 4.9 µM | 4.43 µM | > 100 µM | 15.8 µM | 58.8 µM | 5.87 µM | > 100 µM | 3.35 µM | > 100 µM | 2.33 µM | > 100 µM | > 100 µM | > 100 µM
